# Test results from patent publication US9260454B2, “Isothiazolopyridine-2-carboxamides and their use as pharmaceuticals” (Sanofi, priority 2011, dated 2016).
# Biological target: recombinant human TGM2 (Homo sapiens (Human), UniProt P21980)
# Test: Assay for quantification of TGM2 transglutaminase inhibitory activity (fluorescence, H-Abz-APE(CAD-DNP)QEA-OH substrate)
# Format: biochemical
# Details: recombinant human TGM2 25 μg/ml; substrate 50 μM, glycine methyl ester 5 mM; 15 min preincubation at room temperature; pH 7.5; read-out: IC50 values for inhibition of TGM2
# Description: a) Assay Method for the Quantification of TGM2 Transglutaminase Inhibitory Activity
# The activity of the compounds for inhibition of TGM2 was determined with recombinant human TGM2 (Zedira GmbH, Darmstadt, Germany, Product Nr. T002) and the peptidic compound H-Abz-APE(CAD-DNP)QEA-OH as substrate (Zedira GmbH, Darmstadt, Germany, Product Nr. A102; CAD-DNP is N^ω-2,4-dinitrophenyl-cadaverine, i.e. the carboxylic acid group in the side chain of the respective glutamyl moiety is amidated with the primary amino group of N-(2,4-dinitrophenyl)pentane-1,5-diamine; cf. also K. Oertel et al., Anal. Biochem. 2007, 367: 152-158). For this purpose, 2 μl of a solution of different concentrations of the test compound in dimethyl sulfoxide was added to 28 μl of buffer (50 mM TRIS, 100 mM NaCl, 10 mM CaCl2, pH 7.5) and 10 μl of a TGM2 solution to give a TMG2 test concentration of 25 μg/ml, and the mixture incubated for 15 minutes at room temperature in a 96 half-well microtiter plate. The enzyme reaction was started by the addition of 10 μl of substrate solution containing H-Abz-APE(CAD-DNP)QEA-OH and glycine methyl ester hydrochloride in buffer to give test concentrations of H-Abz-APE(CAD-DNP)QEA-OH of 50 μM and of glycine methyl ester hydrochloride of 5 mM. The time course of the reaction was monitored with excitation at 318 nm and measurement at emission wavelength 418 nm in a microtiter plate reader (SpectraMax M5, Molecular Devices) over 15 minutes. Rates were calculated from the linear part of the curve (generally between 5 and 10 minutes). IC50 values were calculated from the means (duplicates) of a dilution series of the compound, using the software Softmax Pro (Version 4.8, Molecular Devices).
# Chain of recombinant human TGM2 (P21980 whole entry): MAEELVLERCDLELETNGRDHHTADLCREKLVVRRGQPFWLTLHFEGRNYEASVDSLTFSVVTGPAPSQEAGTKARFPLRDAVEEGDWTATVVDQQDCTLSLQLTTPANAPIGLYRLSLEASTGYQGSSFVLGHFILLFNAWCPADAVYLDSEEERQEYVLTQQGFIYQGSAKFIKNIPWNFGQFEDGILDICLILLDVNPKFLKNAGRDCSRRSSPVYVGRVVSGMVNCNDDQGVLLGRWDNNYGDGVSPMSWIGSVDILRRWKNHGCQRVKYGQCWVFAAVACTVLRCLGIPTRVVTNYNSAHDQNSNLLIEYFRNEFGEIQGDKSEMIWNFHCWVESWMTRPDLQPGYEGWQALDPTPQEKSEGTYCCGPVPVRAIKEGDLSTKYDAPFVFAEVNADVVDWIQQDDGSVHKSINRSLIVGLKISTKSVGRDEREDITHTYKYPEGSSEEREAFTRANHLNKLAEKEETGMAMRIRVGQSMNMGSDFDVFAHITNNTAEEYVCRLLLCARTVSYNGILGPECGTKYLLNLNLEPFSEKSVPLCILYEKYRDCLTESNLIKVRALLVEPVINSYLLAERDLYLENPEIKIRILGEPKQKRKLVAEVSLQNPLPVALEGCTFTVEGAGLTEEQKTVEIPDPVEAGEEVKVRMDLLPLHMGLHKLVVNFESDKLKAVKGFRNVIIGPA
row,IC50 [µM],SMILES
1,1.2,O=C(N1CCNCC1)n1sc2c(ccc[n+]2[O-])c1=O [Example 72]
2,0.062,CC(=O)N1CCN(C(=O)n2sc3c(ccc[n+]3[O-])c2=O)CC1 [Example 70]
3,2.3,O=C([C@@H]1CCCN1)N1CCN(C(=O)n2sc3c(ccc[n+]3[O-])c2=O)CC1 [Example 50]
4,2.9,C[C@@H]1CN(C(=O)n2sc3c(ccc[n+]3[O-])c2=O)C[C@H](C)O1 [Example 81]
5,0.054,COc1ccc(C(=O)N2CCN(C(=O)n3sc4c(ccc[n+]4[O-])c3=O)CC2)cc1OC [Example 69]
6,2.1,O=C(N1CCC(O)CC1)n1sc2c(ccc[n+]2[O-])c1=O [Example 86]
7,1,O=C1CC[C@@H](C(=O)N2CCN(C(=O)n3sc4c(ccc[n+]4[O-])c3=O)CC2)N1 [Example 59]
8,0.13,O=C(c1ccncc1)N1CCN(C(=O)n2sc3c(ccc[n+]3[O-])c2=O)CC1 [Example 74]
9,2,CCNCC(=O)N1CCN(C(=O)n2sc3c(ccc[n+]3[O-])c2=O)CC1 [Example 55]
10,0.072,O=C(c1ccccn1)N1CCN(C(=O)n2sc3c(ccc[n+]3[O-])c2=O)CC1 [Example 89]
11,0.12,CCCC(=O)C1CCN(C(=O)n2sc3c(ccc[n+]3[O-])c2=O)CC1 [Example 78]
12,0.15,O=C1CN(C(=O)n2sc3c(ccc[n+]3[O-])c2=O)CCN1 [Example 80]
13,0.75,COCCC(=O)N1CCN(C(=O)n2sc3c(ccc[n+]3[O-])c2=O)CC1 [Example 83]
14,0.065,COc1ccc(C(=O)N2CCN(C(=O)n3sc4ncccc4c3=O)CC2)cc1OC [Example 68]
15,3.1,O=C1NCCN1C1CCN(C(=O)n2sc3c(ccc[n+]3[O-])c2=O)CC1 [Example 62]
16,1.7,NC(=O)N1CCN(C(=O)n2sc3c(ccc[n+]3[O-])c2=O)CC1 [Example 84]

# Second part, the compound before the results:
row,SMILES,IC50 [µM]
1,CC(NC(=O)n1sc2c(ccc[n+]2[O-])c1=O)c1ccc2c(c1)OCCO2 (centres unmarked) [Example 16],26
2,O=C(CCOc1ccccc1)N1CCN(C(=O)n2sc3c(ccc[n+]3[O-])c2=O)CC1 [Example 21],0.014
3,CNC1CCN(C(=O)n2sc3c(ccc[n+]3[O-])c2=O)CC1 [Example 42],0.24
4,NCC(=O)N1CCN(C(=O)n2sc3c(ccc[n+]3[O-])c2=O)CC1 [Example 44],0.12
5,O=C(N1CCN(c2ccc(N3CCCC3)nn2)CC1)n1sc2c(ccc[n+]2[O-])c1=O [Example 46],0.14
6,CC(C)C(=O)N1CCN(C(=O)n2sc3c(ccc[n+]3[O-])c2=O)CC1 [Example 29],0.062
7,O=C(N1CCOCC1)n1sc2c(ccc[n+]2[O-])c1=O [Example 5],0.27
8,CN1CCN(C2CCN(C(=O)n3sc4c(ccc[n+]4[O-])c3=O)CC2)CC1 [Example 40],0.34
9,N#Cc1ccc(N2CCN(C(=O)n3sc4ncccc4c3=O)CC2)cc1 [Example 6],1.1
10,O=C(O)CN1CCN(C(=O)n2sc3ncccc3c2=O)CC1 [Example 8],18
11,COc1ccc(CNC(=O)n2sc3c(ccc[n+]3[O-])c2=O)cc1OC [Example 24],0.37
12,O=C(C1CC1)N1CCN(C(=O)n2sc3ncccc3c2=O)CC1 [Example 27],0.42
13,O=C(N1CCC2(CCCN2)CC1)n1sc2c(ccc[n+]2[O-])c1=O [Example 45],4.3
14,O=C(O)CN1CCN(C(=O)n2sc3c(ccc[n+]3[O-])c2=O)CC1 [Example 10],12
15,CC(=O)N1CCN(C(=O)n2sc3ncccc3c2=O)CC1 [Example 26],0.34
16,CCS(=O)(=O)N1CCN(C(=O)n2sc3c(ccc[n+]3[O-])c2=O)CC1 [Example 38],0.061
17,CCS(=O)(=O)N1CCN(C(=O)n2sc3ncccc3c2=O)CC1 [Example 36],0.43
18,O=C(CCOc1ccccc1)N1CCN(C(=O)n2sc3ncccc3c2=O)CC1 [Example 20],0.11
19,O=C(C1CC1)N1CCN(C(=O)n2sc3c(ccc[n+]3[O-])c2=O)CC1 [Example 28],0.045

# System: micromass culture of mesenchymal cells
# Test: not given
# Details: 30 μM in micromass culture; cited from earlier work
SMILES,Xylt2 expression,proteoglycan deposition
O=C(NC(Cc1c[nH]c2ccc(F)cc12)C(=O)NCC1CC(Br)=NO1)OCc1cnc2ccccc2c1 (centres unmarked) [ERW1069],increase,increase

# System: chondrocytes
# Test: not given
# Details: cited from earlier work
row,SMILES,active TGFβ1 in chondrocytes
1,NCCSSCCN [cystamine],decrease
